Measurements reported in publication PMC12022980, “Rational Design of PROTAC Linkers Featuring Ferrocene as a Molecular Hinge to Enable Dynamic Conformational Changes” (Journal of the American Chemical Society, 2025).
In brackets after ≈: the same amount, converted by molar mass. Where two headings read alike, the source gives them in different places.

What was measured:
pVHL30 = molecular target: T1, pVHL30 (Homo sapiens, UniProt P40337); assay: Western blot VHL degradation in HEK293 cells; type: cell-based; settings: HEK293, 4 h, 1 μM
T1 construct: endogenous in cells; host or cells: HEK293 (ATCC)
Experimental: To further elucidate the mode of action of FerroTAC AS2, we explored its dependency on ubiquitination and proteasome activity.
A) Representative immunoblots of VHL protein levels after treatment of
HEK293 cells. Cells were treated with 0.1% EtOH, 0.1 μM or 1 μM of the indicated compounds for 4 and 24 h.
Controls were included at 1 μM for 24 h. Mean values of two biologically independent experiments.
Representative time-course immunoblots of VHL protein levels after treatment of HEK293 cells treated with
Cells were treated with 0.1% EtOH and controls at 1 μM. Mean values of two biologically
independent experiments. Apparent half-life values (t 1/2) were estimated by fitting band intensity against time
using a single-phase exponential decay model. C) Representative immunoblots of VHL protein levels in
neddylation inhibitor MLN4924 (3 μM) and VHL inhibitor VH032 (50 μM). The amount of EtOH (0.1%) and
DMSO (0.5%) is fixed in all samples. Band quantification was performed using ImageJ software and reported
(in black and black) as relative amount as ratio of each protein band relative to the lane’s loading control
(tubulin). VHL/tubulin protein ratios were normalised to the average of the controls (100%).
HEK293 and HCT116 cell lines, purchased from ATCC, were cultured in Dulbecco’s modified Eagle’s medium (DMEM, Gibco) supplemented with 10% fetal bovine serum (FBS, Gibco), L-glutamine (2 mM, Gibco) and 100 μg/mL of penicillin/streptomycin (Gibco). All cell lines were maintained in a humidified incubator at 37 °C and 5% CO2 for no more than 30 passages. Cells were routinely tested for mycoplasma contamination.
Cell Treatment for Immunoblotting
depending on the experimental setup. Cells were treated in fresh medium with the indicated compounds under indicated conditions with a final EtOH or iPrOH concentration of 0.01% (v/v) to 0.1% (v/v) depending on the experimental setup. […]
stored at −80°C. Protein concentration was determined by bicinchoninic acid (BCA) assay (Thermo Fisher […]
Quantitative Immunoblotting […]

[1] = Mouse liver microsome stability; type: in vitro ADME; settings: liver microsomes
Experimental: Mouse Liver Microsome Stability
Testing compound (1.5 μL) or reference compound (500 μM in 5% iPrOH and 95% acetonitrile) was mixed with 18.75 μL of 20 mg/mL liver microsome (Corning) and 479.75 μL of potassium phosphate buffer (0.1 M potassium phosphate buffer, 1 mM EDTA, pH 7.4). The reaction was started by mixing 30 μL of the above mixture (prewarmed to 37 °C) with 15 μL of 6 mM NADPH stock solution (prewarmed to 37 °C). After incubating for 5, 15, 30, or 45 min, 135 μL of acetonitrile containing internal standard was added to stop the reaction. For 0 min, the compound and microsome mixture were mixed with acetonitrile first before adding NADPH. After quenching, the reaction mixture was centrifuged, and the supernatant was taken and diluted for LC-MS

Plasma stability assay = type: in vitro ADME; settings: mouse plasma; read-out: stability T1/2 in mouse plasma
Experimental: Frozen plasma was thawed at 37 °C and centrifuged at 3000 rpm for 8 min to remove clots, and the supernatant was used in the experiment. The pH of the plasma was recorded, and only the pH range between 7.4 and 8 was used. The plasma and compound solution were prewarmed to 37 °C. 10 µL of prewarmed testing compound or reference compound (procaine) solution (20 μM in 0.05 mM sodium phosphate buffer (pH 7.4) with 0.5% BSA) was mixed with 90 μL of plasma at different time points to allow for 5, 15, 30, 45, and 60 min of incubation time. For 0 min, the plasma was mixed with vehicle only. Acetonitrile was added to the compound and plasma mixture to quench the reaction, and the resulting mixture was centrifuged (5594g for 15 min). The

HEK293 cells = assay: Cell viability assay (CellTiter-Glo); type: cell-based; settings: 72 h
Experimental: (§1) Therefore, we assessed the impact of the BET-degrading FerroTAC AS6 on the viability of BET-sensitive HCT116 cells and HEK293 cells (Figure 6A). […]
(§2) room temperature and protected from light. Thereafter, the membranes were washed with TBS-T three times for 10 min, and protein bands were acquired using a ChemiDoc MP imaging system (Bio-Rad). Band quantification was performed using Image Lab software and reported as ratio of each protein band relative to […]
(§3) Peak elution was monitored using ultraviolet absorbance at 280 nm.

HCT116 cells = assay: Cell viability assay (CellTiter-Glo); type: cell-based; settings: Homo sapiens, HCT-116, 72 h; read-out: IC50 ± S.D. HCT116
Experimental: as §1, §2, §3

[2] = LogD7.4 shake flask (octanol/phosphate buffer); type: physicochemical; settings: octanol/potassium phosphate buffer, pH 7.4
Description: The modulation of lipophilicity could play a critical role in optimizing PROTACs. We thus utilized traditionally measured LogD values from shake flask experiments alongside chromatographically assessed ChromLogD values.[72] […] By incorporating ferrocene, permeability may be improved due to the feature of promoting IMHB-mediated compact conformations, while also balancing the lipophilicity of the polar ligand/PEG linkers. However, while sufficient lipophilicity is required for passive uptake over the cell membrane, it may also drive poor aqueous solubility.[73]
(§4) For the permeabilised-cell assay, 10 µL of digitonin was added, and plates were incubated in darkness for 5 minutes to allow permeabilisation. In each well 10 µL of the 10x PROTAC and vehicle control dilutions were dispensed. A 100x NanoBRET tracer solution (50 µM for VHL permeabilised-cell assay) was prepared with 100% DMSO, then diluted to a 20x solution with tracer dilution buffer. A 5 µL volume of tracer was dispensed into each well at a final concentration of 0.5 µM, and the plate was mixed at 300 RPM for 15 seconds. Finally, 50 µL of a 3x substrate solution (8.8 µL NanoBRET Nano-Glo substrate and 3,500 µL Opti-MEM) was added, and plates were incubated for 1 minute at room temperature before reading on a GloMax Discover as […]
HiBiT Lytic Assay with Zosuquidar Co-treatment […]
Luminescence was measured using the GloMax® Multiplex Luminescence and Fluorescence Protocol for 96-well plates. The luminescence signal for each well was normalised to the fluorescence signal and further normalised to the mean values from iPrOH-treated controls, then expressed as a ratio relative to the vehicle control. Curve fitting and DC50 values were determined in GraphPad Prism v.10.0.3 using nonlinear regression with a three-parameter logistic model to calculate DC50 values. […]
(§5) of 1 mL/min and a column temperature of 40 °C. […] Data were analysed with Shimadzu Open Solution Data Browser to obtain the RTs of the peak for each individual compound and standards. […]
ChromLogD values for the compounds were then calculated based on the regression curve. […]

[3] = Kinetic solubility in phosphate buffer and FeSSIF; type: physicochemical; settings: kinetic from iPrOH stock
Experimental: Solubility in Phosphate Buffer and Fed State Simulated Intestinal Fluid (FeSSIF) 8 µL of reference or test compound stock solution (10 mM in iPrOH) was added to 792 μL of 100 mM phosphate buffer (pH 7.4) or FeSSIF (pH 5.8). The resulting mixture was shaken for 1 h (1000 rpm) at room temperature and then centrifuged for 10 min (12 000 rpm) to remove the undissolved particles. The supernatant was collected and diluted 10 times and 100 times separately with 100 mM phosphate buffer or FeSSIF. Five microliters of the supernatant samples (no diluted, 10 times diluted, 100 times diluted) were mixed with 95 μL of acetonitrile (containing internal standard) separately before injecting into LC-MS/MS for analysis. […]

[4] = ChromLogD (chromatographic); type: physicochemical; settings: HPLC on Hypersil GOLD-C18 column, pH 7.4
Experimental: as §4
HiBiT Lytic Assay with Zosuquidar Co-treatment
A modified HiBiT lytic assay was used to assess the activity of zosuquidar on the BET degradation. […]
Luminescence was measured using the GloMax® Multiplex Luminescence and Fluorescence Protocol for 96-well plates. The luminescence signal for each well was normalised to the fluorescence signal and further normalised to the mean values from iPrOH-treated controls, then expressed as a ratio relative to the vehicle control. Curve fitting and DC50 values were determined in GraphPad Prism v.10.0.3 using nonlinear regression with a three-parameter logistic model to calculate DC50 values.
The stock solution of each test item was prepared from a 10mM stock in iPrOH, which was further diluted 1:50 with […] to obtain a 0.2 mM solution (4 µL of the test item stock solution is diluted with 196 µL DMSO) in insert vials. The samples were analysed on an HPLC system equipped with a HPLC-ThermoScientific Hypersil GOLD-C18 column (2.1 x 50 mm, 1.9 µm) and by MS detection using electrospray ionization (ESI) and Atmospheric Pressure Chemical Ionization (APCI) on a Shimadzu LCMS 2050. […]
as §5

T1 sequence (P40337 whole entry): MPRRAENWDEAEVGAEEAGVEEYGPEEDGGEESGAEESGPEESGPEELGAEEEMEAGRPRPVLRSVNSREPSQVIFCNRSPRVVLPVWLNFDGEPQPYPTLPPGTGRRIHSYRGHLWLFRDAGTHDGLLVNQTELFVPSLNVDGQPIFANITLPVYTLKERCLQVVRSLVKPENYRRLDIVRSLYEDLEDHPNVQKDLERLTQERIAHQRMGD

| pVHL30 degradation (in words) (pVHL30) | CLint scaled at 1 µM ([1]; pH 7.4) [mL/min/kg] | half-life at 1 µM ([1]; pH 7.4, read-out: stability T1/2 in mouse microsome) [min] | half-life at 2 µM (Plasma stability assay) [h] | IC50 (HCT116 cells) [nM] | logD [2] | solubility kinetic at 1 h ([3]; FeSSIF pH 5.8, read-out: kinetic solubility FeSSIF (pH 5.8)) [µM] | solubility kinetic at 1 h ([3]; phosphate buffer, aqueous buffer, PBS pH 7.4, read-out: kinetic solubility PBS (pH 7.4)) [µM] | chromatographic logD [4] | Compound | cytotoxicity in HEK293 cells (in words) (HEK293 cells) |
| --- | --- | --- | --- | --- | --- | --- | --- | --- | --- | --- |
| failed to induce significant degradation |  |  |  |  |  |  |  |  | Cc1ncsc1-c1ccc([C@H](C)NC(=O)[C@@H]2C[C@@H](O)CN2C(=O)[C@@H](NC(=O)COCCOCCOCCOCCOCCOCC(=O)N[C@H](C(=O)N2C[C@H](O)C[C@H]2C(=O)N[C@@H](C)c2ccc(-c3scnc3C)cc2)C(C)(C)C)C(C)(C)C)cc1 [MeCM11] |  |
|  | 2180 | 2.5 | 5.78 | 1330 | 3.8 | 51.1 (≈ 51.2 µg/mL) | 22.4 (≈ 22.4 µg/mL) | 4.1 | Cc1ncsc1-c1ccc(CNC(=O)C2CC(O)CN2C(=O)C(NC(=O)COCCOCCOCCNC(=O)CC2N=C(c3ccc(Cl)cc3)c3c(sc(C)c3C)-n3c(C)nnc32)C(C)(C)C)cc1 (stereo not shown) [MZ1] | almost no intrinsic cytotoxicity |
